Results from patent publication US20250257064A1, “TRIFLUOROMETHYL-SUBSTITUTED SULFONAMIDE AS BCL-2-SELECTIVE INHIBITOR” (Chia Tai Tianqing Pharmaceutical Group Co., Ltd., priority 2018, published 2025).

What was measured:
[1] = In vitro stability in human liver microsomes; format: in vitro ADME; settings: 1 μM
Protocol: (§1) Experimental Example 3: In Vitro Stability in Liver Microsome
(§2) 300 μL of the final incubation system contains 30 μL of liver microsomes (protein concentration: 5 mg/mL), 30 μL of NADPH+MgCl2, 3 μL of the test compound (in acetonitrile), and 237 μL of PBS buffer (pH 7.4), wherein the proportion of the organic solvent (acetonitrile) is 1% (volume ratio). Two duplicate samples were prepared for each specie (mouse, rat and human), and each sample was 0.3 mL. Each tube which was added with 270 μL of a mixed solution of substrate and enzyme, and NADPH, after being pre-incubated at 37° C. for 5 min, was added with 30 μL of NADPH+MgCl2 and mixed. Then 50 μL of the mixture was taken at 0 min, 15 min, 30 min and 60 min, and added with 300 μL of glacial acetonitrile containing an internal standard to terminate the reaction.
(§3) 50 μL of the incubated sample was added with 300 μL of glacial acetonitrile containing an internal standard (20 ng/mL diazepam) for precipitation, vortexed for 5 min, and centrifuged (13,000 rpm, 20° C.) for 10 min. 70 μL of supernatant was taken and diluted with 70 μL of ultrapure water. After being mixed well, 1 μL of the resulting sample was injected for analysis.

[2] = tested on: human B-cell leukemia RS4;11 subcutaneous xenograft; test: Pharmacodynamics in human B-cell leukemia RS4;11 subcutaneous xenograft model; format: in vivo, NOD/SCID mice; settings: Day 17 after the end of administration
Text: Experimental Example 5: Pharmacodynamics of Compounds in Human B-Cell Leukemia RS4; 11 Subcutaneous Xenograft Model
NOD/SCID mice, female, 9-10 weeks old (ages upon tumor cell grafting), body weight of 16.3-22.0 g, purchased from Beijing AniKeeper Biotech Co., Ltd.; production license number: SCXK (Jing) 2017-0006, and animal certification number: 11402400013155. Breeding environment: SPF grade. Mice were grafted subcutaneously on the right anterior dorsal side with 1×10^7 RS4;11 cells. The day of grafting was defined as day 0. When the mean tumor volume was 240 mm^3, the mice were randomly grouped according to the tumor size. The administration was performed as per Table 5 below.
Clinical symptoms observed during the experiment were recorded in the raw data. The calculation formula for tumor volume: Tumor volume (mm^3)=½×(a×b^2) (where a represents long diameter and b represents short diameter). The data were collected using StudyDirector™ software (version No. 3.1.399.19, supplier: Studylog System, Inc., S.San Francisco, CA, USA) in the experiment, including measurements of the long and short diameters of the tumor and weighing results of the animals. The raw data obtained from a balance and a vernier caliper were directly imported into the software, and any change in the data was recorded. Relative tumor proliferation rate (T/C %) refers to the percentage of the relative tumor volume or tumor weight of the treatment and control groups at a certain time point. The calculation formula is as follows:
T/C %=TRTV/CRTV×100% (TRTV: mean RTV for treatment group; CRTV: mean RTV for vehicle control group; RTV=Vt/V0, where V0 is the tumor volume of the animal upon grouping, and Vt is the tumor volume of the animal after treatment).
(T and C are the relative tumor volume (RTV) or tumor weight (TW) at a particular time point for the treatment and control groups, respectively).
All experimental results were expressed as mean tumor volume±SEM (standard error of mean). The relative tumor volume of the treatment group was compared with that of the control group for any significant difference by the independent sample T test. All data were analyzed using SPSS 18.0. p<0.05 was defined as a significant difference.

[3] = In vitro stability in mouse liver microsomes; format: in vitro ADME; settings: 1 μM
Protocol: as §1, §2, §3

[4] = Pharmacokinetics in rats; format: in vivo; settings: Sprague-Dawley, rat, plasma, po, SD rats, IG 5 mg/kg; for AUC(0-t): read-out: AUC(0-24 h); for MRT last: read-out: MRT(0-t)
Protocol: 4.1 Pharmacokinetics in Rats
SD rats weighing 180-220 g were randomly grouped with 3 rats in each group after 3-5 days of adaptive feeding, and intragastrically administered with compounds 1-1 and 8-1 at a dosage of 5 mg/kg.
The animals to be tested (SD rats) were fasted for 12 h before administration and fed 4 h after administration, and water was freely drunk before, after and during the experiment.
After intragastric administration, about 0.2 mL of blood was collected from the orbit at 0 min, 15 min, 30 min, 1 h, 2 h, 4 h, 6 h, 8 h, 10 h and 24 h, and after anticoagulation with EDTA-K2, blood samples were transferred to a centrifuge within 30 min, and centrifuged at 4000 rpm for 10 min at 4° C. to separate the plasma. All plasma samples were collected and immediately stored at −20° C. for testing.
50 μL of the plasma sample to be tested was added with 300 μL of acetonitrile solution containing an internal standard (20 mg/mL diazepam), shaken and mixed well for 5 min, and centrifuged at 13,000 rpm for 10 min. 75 μL of supernatant was taken and diluted with 75 μL of ultrapure water. After being mixed well, 2 μL of the resulting sample was taken for LC/MS/MS determination, and a chromatogram was recorded.
Oral exposure of the compounds disclosed herein was evaluated by in vivo pharmacokinetic experiments in rats.

Row | SMILES | Human Residual content after 60 min (%) [1] | Relative tumor volume (x ± S) ([2]; 25 mg/kg p.o. one dose) | T/C (%) ([2]; 25 mg/kg p.o. one dose) | TGI (%) ([2]; 25 mg/kg p.o. one dose) | Tumor volume (x ± S) ([2]; 25 mg/kg p.o. one dose) | Relative tumor volume (x ± S) ([2]; 50 mg/kg p.o. one dose) | T/C (%) ([2]; 50 mg/kg p.o. one dose) | TGI (%) ([2]; 50 mg/kg p.o. one dose) | Tumor volume (x ± S) ([2]; 50 mg/kg p.o. one dose) | Mouse Residual content after 60 min (%) [3] | AUC(0-inf) [4] | Cmax [4] | Tmax [4] | half-life [4] | AUC(0-t) [4] | MRT last [4]
1 | CC1(C)CCC(CN2CCN(c3ccc(C(=O)NS(=O)(=O)c4ccc(NCC5CCOCC5)c([N+](=O)[O-])c4)c(Oc4cnc5[nH]ccc5c4)c3)CC2)=C(c2ccc(C(F)(F)F)cc2Cl)C1 [Compound 1-1, 4-(4-{[2-(2-chloro-4-trifluoromethylphenyl)-4,4-dimethylcyclohex-1-enyl]methyl}-piperazin-1-yl)-N-({3-nitro-4-[(tetrahydro-2H-pyran-4-ylmethyl)amino]phenyl}sulfonyl)-2-(1H-pyrrolo[2,3-b]pyridin-5-yloxy)-benzamide] | 70.8% | 4.39 ± 0.83 | 51.5% | 48.5% | 1024.97 ± 160.59 mm^3 | 1.92 ± 0.36 | 22.5% | 77.5% | 465.78 ± 95.68 mm^3 | 78.9% | 4460 ± 1340 ng·h/mL | 378 ± 83.5 ng/mL | 4 h | 8.73 ± 0.31 h | 3700 ± 848 ng·h/mL | 8.95 ± 4.99 h
2 | CC1(C)CCC(CN2CCN(c3ccc(C(=O)NS(=O)(=O)c4ccc(NC[C@H]5COCCO5)c([N+](=O)[O-])c4)c(Oc4cnc5[nH]ccc5c4)c3)CC2)=C(c2ccc(C(F)(F)F)cc2Cl)C1 [Compound 8-1] | 86.3% | – | 29.8% | 70.2% | 600.39 ± 32.88 mm^3 | – | – | – | – | 73.9% | 6560 ± 1800 ng·h/mL | 739 ± 226 ng/mL | 4 h | 7.62 ± 2.78 h | 5970 ± 2020 ng·h/mL | 7.35 ± 0.45 h
